Source: article PMC10587151, “Ligand activation mechanisms of human KCNQ2 channel” (Nature Communications, 2023)
Structures can show the parent of a compound that is named as a salt. Where two headings read alike, the source gives them in different places.

Experiments:
[1] = biological target: T1, KCNQ2 (Homo sapiens, UniProt O43526, F104A); assay: cryo-EM structure ([…] Å), closed state; assay type: binding
T1 construct: residues 64–674; with calmodulin (CaM)

[2] = biological target: T2, KCNQ2 (Homo sapiens, UniProt O43526); assay: cryo-EM structure ([…] Å); whole-cell patch clamp in CHO cells for the EC50; assay type: cell-based; parameters: wild-type human KCNQ2 cDNA in pcDNA5/FRT, expressed in CHO cells, whole-cell patch clamp; no CaM co-transfection stated; not the 64-674 cryo-EM construct
Target sequence in this assay (O43526 whole entry, the tested form may be a part): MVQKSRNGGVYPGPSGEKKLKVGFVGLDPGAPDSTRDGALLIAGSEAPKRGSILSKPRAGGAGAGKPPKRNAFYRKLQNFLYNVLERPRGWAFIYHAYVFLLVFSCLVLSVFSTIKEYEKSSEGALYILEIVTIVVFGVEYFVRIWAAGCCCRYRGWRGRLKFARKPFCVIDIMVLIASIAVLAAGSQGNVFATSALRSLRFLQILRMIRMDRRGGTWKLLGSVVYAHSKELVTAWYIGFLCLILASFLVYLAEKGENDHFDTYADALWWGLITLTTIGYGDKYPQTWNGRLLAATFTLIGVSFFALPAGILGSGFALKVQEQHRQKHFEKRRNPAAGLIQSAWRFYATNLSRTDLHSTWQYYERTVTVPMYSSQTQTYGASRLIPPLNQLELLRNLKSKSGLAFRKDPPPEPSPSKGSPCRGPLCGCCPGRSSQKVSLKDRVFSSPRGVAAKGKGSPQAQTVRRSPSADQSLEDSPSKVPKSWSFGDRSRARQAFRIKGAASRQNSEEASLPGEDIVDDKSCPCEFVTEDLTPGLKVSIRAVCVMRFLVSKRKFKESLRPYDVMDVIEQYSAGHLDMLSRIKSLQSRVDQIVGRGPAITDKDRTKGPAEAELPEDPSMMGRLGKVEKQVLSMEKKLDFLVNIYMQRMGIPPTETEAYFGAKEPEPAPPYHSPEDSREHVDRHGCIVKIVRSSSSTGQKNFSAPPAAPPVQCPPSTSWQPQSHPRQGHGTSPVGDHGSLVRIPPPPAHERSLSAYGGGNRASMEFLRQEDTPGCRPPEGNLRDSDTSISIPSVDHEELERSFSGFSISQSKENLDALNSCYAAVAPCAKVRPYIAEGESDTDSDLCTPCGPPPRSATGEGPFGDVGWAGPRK

[3] = biological target: T2, KCNQ2; assay: as above; assay type: cell-based; parameters: residues 64–674; with calmodulin (CaM)
[4] = biological target: T1, KCNQ2; assay: cryo-EM structure ([…] Å), open state, with one CBD co-bound; assay type: binding
[5] = biological target: T2, KCNQ2; assay: cryo-EM structure ([…] Å), with CBD co-bound; parameters: residues 64–674; with calmodulin (CaM)
[6] = biological target: the molecule itself; assay: cryo-EM structure; KCNQ2 (strep tag) and CaM (His tag) co-expressed in HEK293S, complex purified on Strep-Tactin and Superose 6 in 20 mM Tris pH 8.0, 150 mM KCl, 0.02% GDN; incubated with 0.25 mM CBD, 0.15 mM HN37 and/or 1 mM PIP2; C4 symmetry; closed and open states

T1 sequence (O43526 64-674 F104A): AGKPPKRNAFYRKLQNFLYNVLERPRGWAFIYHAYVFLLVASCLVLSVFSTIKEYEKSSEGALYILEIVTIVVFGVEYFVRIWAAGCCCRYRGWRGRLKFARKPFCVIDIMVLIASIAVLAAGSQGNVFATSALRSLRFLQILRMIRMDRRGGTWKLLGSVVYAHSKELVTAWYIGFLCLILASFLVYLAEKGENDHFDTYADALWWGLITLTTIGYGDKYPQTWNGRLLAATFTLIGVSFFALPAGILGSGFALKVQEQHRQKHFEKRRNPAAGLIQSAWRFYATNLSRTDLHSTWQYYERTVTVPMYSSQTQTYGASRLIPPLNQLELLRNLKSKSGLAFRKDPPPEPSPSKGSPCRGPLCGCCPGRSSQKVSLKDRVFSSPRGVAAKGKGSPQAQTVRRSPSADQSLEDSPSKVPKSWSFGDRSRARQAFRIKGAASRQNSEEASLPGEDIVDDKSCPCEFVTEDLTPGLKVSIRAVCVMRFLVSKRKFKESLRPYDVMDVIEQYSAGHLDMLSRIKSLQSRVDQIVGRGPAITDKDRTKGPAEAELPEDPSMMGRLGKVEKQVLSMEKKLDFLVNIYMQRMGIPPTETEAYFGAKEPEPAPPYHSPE

## C=C(C)[C@@H]1CCC(C)=C[C@H]1c1c(O)cc(CCCCC)cc1O [CBD, cannabidiol]
[1]
  cryo-EM structure (2.7 Å), closed state: In both maps, CBDA molecules maintain strong densities but those for CBDB are barely observed
[2]
  EC50: 4500 ± 1790 nM

## C#CCN(Cc1ccc(F)cc1)c1cc(C)c(NC(=O)OC)c(C)c1 [HN37]
[3]
  EC50: 28.5 ± 2.99 nM

## CCCCCCCC(=O)OC[C@H](COP(=O)(O)O[C@@H]1[C@H](O)[C@H](O)[C@@H](OP(=O)(O)O)[C@H](OP(=O)(O)O)[C@H]1O)OC(=O)CCCCCCC [PIP2, 1,2-dioctanoyl-sn-glycero-3-phospho-(1’-myo-inositol-4’,5’-bisphosphate) (ammonium salt)]
[4]
  cryo-EM structure (3.5 Å), open state, with one CBD co-bound: KCNQ2-CaMF104A-CBD-PIP2-II is in an open state with the PIP2 bound
[5]
  cryo-EM structure (3.1 Å), with CBD co-bound: between VSD and PD, one PIP2 molecule is assigned, with its fatty acid chains switched by S1III/S4III and S5II

B1: human KCNQ2 (residues 64-674, C-terminal strep tag) (domain or fragment, UniProt O43526-1 64-674, looked up)
chain: AGKPPKRNAFYRKLQNFLYNVLERPRGWAFIYHAYVFLLVFSCLVLSVFSTIKEYEKSSEGALYILEIVTIVVFGVEYFVRIWAAGCCCRYRGWRGRLKFARKPFCVIDIMVLIASIAVLAAGSQGNVFATSALRSLRFLQILRMIRMDRRGGTWKLLGSVVYAHSKELVTAWYIGFLCLILASFLVYLAEKGENDHFDTYADALWWGLITLTTIGYGDKYPQTWNGRLLAATFTLIGVSFFALPAGILGSGFALKVQEQHRQKHFEKRRNPAAGLIQSAWRFYATNLSRTDLHSTWQYYERTVTVPMYSSQTQTYGASRLIPPLNQLELLRNLKSKSGLAFRKDPPPEPSPSKGSPCRGPLCGCCPGRSSQKVSLKDRVFSSPRGVAAKGKGSPQAQTVRRSPSADQSLEDSPSKVPKSWSFGDRSRARQAFRIKGAASRQNSEEASLPGEDIVDDKSCPCEFVTEDLTPGLKVSIRAVCVMRFLVSKRKFKESLRPYDVMDVIEQYSAGHLDMLSRIKSLQSRVDQIVGRGPAITDKDRTKGPAEAELPEDPSMMGRLGKVEKQVLSMEKKLDFLVNIYMQRMGIPPTETEAYFGAKEPEPAPPYHSPE
notes: Human voltage-gated potassium channel KCNQ2, N- and C-terminal regions truncated, residues 64-674; numbers count on: NP_004509.2; The vector is a modified pEZT-BM; also called WT KCNQ2; KCNQ2 of the KCNQ2-CaM complex; source: HEK293S suspension cells, BacMam baculovirus, co-expressed with CaM, purified (Strep-Tactin, Superose 6); not shown: strep tag, C-terminal, kept
[6]
  stoichiometry N: 4
